Series [1] in a line: Cytotoxicity against human U2OS cells assessed as reduction in cell viability after 96 hrs. The class given is cell-based.
The nature of series [2]: Selectivity index, ratio of CC50 for human U2OS cells to EC50 for Trypanosoma cruzi Y infected in human U2OS cells. The class given is toxicity, cell-based. The settings on record: read-out: Ratio CC50/EC50.
Another series deals with Trypanosoma cruzi. Kind of series: Antimicrobial activity against Trypanosoma cruzi Y infected in human U2OS cells after 96 hrs by HCS assay. The class given is functional, organism-based.

With `COc1cccc(-c2noc(-c3cccnc3)n2)c1`, in series [1] (read-out: CC50), the CC50 at 96 h stood at 106 µM. Moreover, in series [2], the selectivity ratio was 1.2. The EC50 in the series with Trypanosoma cruzi (read-out: EC50) is 86 µM; in the series on Trypanosoma cruzi (read-out: pEC50 (converted)), 85.1 µM.
On to `C=CCSc1nc(-c2ccc(OC)cc2)n[nH]1`, for which, in series [1] (read-out: CC50), the CC50 at 96 h stood at 195 µM. In addition, the selectivity ratio in series [2] is 1.3. The EC50 in the series on Trypanosoma cruzi (read-out: EC50) came out at 149 µM.
As to `Clc1ccc(-c2csc(-c3cccnc3)n2)cc1`, in series [1] (read-out: CC50), the CC50 at 96 h was over 200 µM. Further, the selectivity ratio in series [2] is over 48. Also, the EC50 is 4.2 µM with Trypanosoma cruzi (read-out: EC50) and 4.17 µM in the series with Trypanosoma cruzi (read-out: pEC50 (converted)).
For the molecule `Cc1nnc(SCC(=O)N2c3ccccc3CC2C)n1-c1ccccc1` (centres undefined), the CC50 at 96 h in series [1] (read-out: CC50) was 155 µM. In addition, the selectivity ratio in series [2] was determined as 4.2. In addition, the EC50 is 36.9 µM in the series on Trypanosoma cruzi (read-out: EC50) and 37.2 µM with Trypanosoma cruzi (read-out: pEC50 (converted)).
For `Cc1ccc(-n2c(SCC(=O)N3CCN(c4ccccc4)CC3)nnc2-c2ccncc2)cc1Cl`, in that order: 21.1 µM, 3, 7 µM and 6.92 µM.
For `Cc1ccc(-c2csc(-c3cccnc3)n2)cc1C`, the CC50 at 96 h in series [1] (read-out: CC50) amounted to 40.8 µM. Besides, the selectivity ratio in series [2] stood at 15.1. The EC50 in the series on Trypanosoma cruzi (read-out: EC50) was 2.7 µM; in the series with Trypanosoma cruzi (read-out: pEC50 (converted)), 2.69 µM.
Consider `O=C(NC(Cn1ccnc1)c1ccccc1)c1cccc(-n2cccn2)c1` (centres undefined), for which the CC50 at 96 h in series [1] (read-out: CC50) was 11.8 µM; in series [1] (read-out: pCC50 (converted)), 11.7 µM. In series [2], the selectivity ratio came to 46.3. The EC50 with Trypanosoma cruzi (read-out: EC50) is 0.3 µM; with Trypanosoma cruzi (read-out: pEC50 (converted)), 0.257 µM.
In the same order, the values of `COc1ccc(S(=O)(=O)N(Cc2ccncc2)Cc2ccc(OCC(C)C)cc2)cc1OC` are 21.7 µM, 21.9 µM, 45.7, 0.5 µM and 0.479 µM.
Consider `CC1=C(C(=O)OCCc2ccccc2)C(c2ccncc2)C2=C(CC(c3ccccc3)CC2=O)N1` (centres undefined), for which the CC50 at 96 h in series [1] (read-out: CC50) was over 200 µM. Besides, the EC50 in the series on Trypanosoma cruzi (read-out: EC50) and in the series with Trypanosoma cruzi (read-out: pEC50 (converted)) was over 200 µM each time.
For `COc1ccc(N2CCN(C(=O)COc3ccc(C4CCCCC4)cc3)CC2)c([N+](=O)[O-])c1`, the CC50 at 96 h in series [1] (read-out: CC50) is 49.6 µM. The selectivity ratio in series [2] was found to be 1.3. Moreover, the EC50 in the series on Trypanosoma cruzi (read-out: EC50) is 38.3 µM.
In the same order, the values of `Cc1ccc(N2C(=O)C(CC(=O)Nc3ccccc3)N(Cc3cccnc3)C2=O)cc1` (centres undefined) are over 200 µM, over 1 and 191 µM.
For the molecule `CC(C)COc1ccc(CN(Cc2ccncc2)S(=O)(=O)c2ccc(F)c(F)c2)cc1`, the CC50 at 96 h in series [1] (read-out: CC50) and in series [1] (read-out: pCC50 (converted)) was 11.5 µM each time. In addition, the selectivity ratio in series [2] amounted to 30.6. The values for the EC50 in the series with Trypanosoma cruzi (read-out: EC50) and in the series on Trypanosoma cruzi (read-out: pEC50 (converted)) were 0.4 µM and 0.38 µM, respectively.
As to `Cc1nnc(-c2cccc(-c3ccnc4[nH]ccc34)c2)s1`, in series [1] (read-out: CC50), the CC50 at 96 h amounted to 127 µM. In addition, the selectivity ratio in series [2] is under 0.6. Moreover, in the series on Trypanosoma cruzi (read-out: EC50), the EC50 was over 200 µM.
Turning to `O=C(NC(Cn1ccnc1)c1ccccc1)c1csc(-c2cccs2)n1` (centres undefined), the figures for the CC50 at 96 h in series [1] (read-out: CC50) and in series [1] (read-out: pCC50 (converted)) were over 200 µM and 200 µM, respectively. In addition, the EC50 in the series with Trypanosoma cruzi (read-out: EC50) and with Trypanosoma cruzi (read-out: pEC50 (converted)) was over 200 µM each time.
For the molecule `CC(Oc1ccc(-c2ccccc2)cc1)C(=O)Nc1ccc(S(=O)(=O)Nc2nccs2)cc1` (centres undefined), in series [1] (read-out: CC50), the CC50 at 96 h is over 200 µM. Besides, the EC50 in the series on Trypanosoma cruzi (read-out: EC50) was over 200 µM.
In the case of `Clc1ccc(Cc2nn3c(CN4CCN(c5ccccc5)CC4)nnc3s2)cc1`, the CC50 at 96 h in series [1] (read-out: CC50) is over 200 µM. Moreover, the EC50 in the series with Trypanosoma cruzi (read-out: EC50) was over 200 µM.
Turning to `O=C(CSc1nc(-c2ccncc2)n[nH]1)N1CCN(c2ccccc2)CC1`, in series [1] (read-out: CC50), the CC50 at 96 h was over 200 µM. Moreover, the selectivity ratio in series [2] is over 9.9. The EC50 was 20.1 µM in the series with Trypanosoma cruzi (read-out: EC50) and 20 µM in the series with Trypanosoma cruzi (read-out: pEC50 (converted)).
For the molecule `Cc1nccn1-c1ccc(Cn2ccnc2-c2cc3ccccc3[nH]c2=O)cc1`, in series [1] (read-out: CC50), the CC50 at 96 h is 52.9 µM. Besides, the selectivity ratio in series [2] was determined as 43.9. For the same molecule, the EC50 with Trypanosoma cruzi (read-out: EC50) worked out at 1.2 µM.
`Nc1ncc(-c2nc(-c3cccnn3)no2)c(-c2ccccc2)n1`: the CC50 at 96 h in series [1] (read-out: CC50) turned out to be 99.7 µM. Moreover, the selectivity ratio in series [2] is under 0.5. The EC50 in the series on Trypanosoma cruzi (read-out: EC50) was over 200 µM.
With `Cn1c(SCC(=O)N2CCN(c3ccccc3)CC2)nnc1-c1ccc(Br)cc1`, the CC50 at 96 h in series [1] (read-out: CC50) is over 200 µM. Also, the EC50 with Trypanosoma cruzi (read-out: EC50) and with Trypanosoma cruzi (read-out: pEC50 (converted)) was over 200 µM in each case.
On to `O=C(N/C(=C/c1cccnc1)c1nc2ccccc2[nH]1)c1cccc(Br)c1`, for which the CC50 at 96 h in series [1] (read-out: CC50) worked out at 47.4 µM. In addition, the selectivity ratio in series [2] amounted to 2.5. Moreover, in the series with Trypanosoma cruzi (read-out: EC50), the EC50 amounted to 18.9 µM.
In the case of `c1cncc(-c2nc(-c3cnccn3)n[nH]2)c1`, in series [1] (read-out: CC50), the CC50 at 96 h is 1.5 µM. Besides, in series [2], the selectivity ratio was 0.4. Moreover, the EC50 in the series with Trypanosoma cruzi (read-out: EC50) stood at 3.4 µM.
Turning to `COc1ccc(N2CCN(C(=O)CN(Cc3ccccc3C)S(=O)(=O)c3ccc(Cl)cc3)CC2)cc1`, the CC50 at 96 h in series [1] (read-out: CC50) was 73.9 µM; in series [1] (read-out: pCC50 (converted)) it was 74.1 µM. The selectivity ratio in series [2] came out at 27.7. Besides, the EC50 is 2.7 µM with Trypanosoma cruzi (read-out: EC50) and 2.69 µM with Trypanosoma cruzi (read-out: pEC50 (converted)).
`O=C(NC(Cn1ccnc1)c1ccccc1)c1ccc(-n2cnnn2)cc1` (centres undefined): the results for the CC50 at 96 h in series [1] (read-out: CC50) and in series [1] (read-out: pCC50 (converted)) were 33.6 µM and 35.5 µM, respectively. The selectivity ratio in series [2] came out at 137. Further, the EC50 was 0.3 µM in the series on Trypanosoma cruzi (read-out: EC50) and 0.257 µM in the series with Trypanosoma cruzi (read-out: pEC50 (converted)).
For the molecule `COc1ccc2c(c1)cc(C(=O)NC(Cn1ccnc1)c1ccccc1)n2C` (centres undefined), the CC50 at 96 h in series [1] (read-out: CC50) was 0.62 µM; in series [1] (read-out: pCC50 (converted)) it was 0.617 µM. The EC50 in the series on Trypanosoma cruzi (read-out: EC50) was 13.3 µM; in the series on Trypanosoma cruzi (read-out: pEC50 (converted)), 13.2 µM.
As for `N#Cc1ccc(-c2ccc(OCC(=O)N3CCN(c4cccc(Cl)c4)CC3)cc2)cc1`, the CC50 at 96 h in series [1] (read-out: CC50) was over 200 µM. Moreover, in the series on Trypanosoma cruzi (read-out: EC50), the EC50 was over 200 µM.
On to `Cc1ncsc1CCC(=O)NC(Cn1ccnc1)c1ccccc1` (centres undefined), for which the CC50 at 96 h in series [1] (read-out: CC50) was over 200 µM. In addition, in the series with Trypanosoma cruzi (read-out: EC50), the EC50 was over 200 µM.
Turning to `CC(=O)Nc1ccc(Cl)c(C(=O)NC(Cn2ccnc2)c2ccccc2)c1` (centres undefined), in series [1] (read-out: CC50), the CC50 at 96 h was over 200 µM. The selectivity ratio in series [2] was over 72.8. The EC50 with Trypanosoma cruzi (read-out: EC50) is 2.7 µM.
With `O=C(CC(Nc1ccc2ccccc2c1)c1ccncc1)c1ccc(Br)cc1` (centres undefined), in series [1] (read-out: CC50), the CC50 at 96 h is over 200 µM. Besides, in series [2], the selectivity ratio is over 258. Moreover, the EC50 in the series with Trypanosoma cruzi (read-out: EC50) was found to be 0.8 µM.
For the molecule `COc1ccc(C2CC(=O)C3=C(C2)NC(C)=C(C(=O)OCCc2ccccc2)C3c2ccncc2)cc1` (centres undefined), in series [1] (read-out: CC50), the CC50 at 96 h came out at 19.3 µM. Further, in series [2], the selectivity ratio turned out to be 46.5. Further, the EC50 with Trypanosoma cruzi (read-out: EC50) was 0.4 µM; in the series on Trypanosoma cruzi (read-out: pEC50 (converted)) it was 0.417 µM.
In the case of `Oc1ccccc1-c1n[nH]c(-c2ccccn2)n1`, the CC50 at 96 h in series [1] (read-out: CC50) was over 200 µM. The EC50 with Trypanosoma cruzi (read-out: EC50) was over 200 µM.
Regarding `Cc1ccccc1-c1noc(-c2cccnc2)n1`, in series [1] (read-out: CC50), the CC50 at 96 h is over 200 µM. The selectivity ratio in series [2] was over 10.8. Besides, the EC50 in the series on Trypanosoma cruzi (read-out: EC50) and in the series with Trypanosoma cruzi (read-out: pEC50 (converted)) was 18.6 µM each time.
`O=C(COc1ccc(-c2ccccc2)cc1)N1CCN(S(=O)(=O)c2ccc(F)cc2)CC1`: the CC50 at 96 h in series [1] (read-out: CC50) was over 200 µM; in series [1] (read-out: pCC50 (converted)) it was 200 µM. In addition, the EC50 in the series with Trypanosoma cruzi (read-out: EC50) and in the series on Trypanosoma cruzi (read-out: pEC50 (converted)) was over 200 µM each time.
Turning to `CC1Cc2ccccc2N1C(=O)CSc1nnnn1-c1ccccc1` (centres undefined), the CC50 at 96 h in series [1] (read-out: CC50) is over 200 µM. In addition, the selectivity ratio in series [2] is over 1.8. Moreover, the EC50 is 109 µM with Trypanosoma cruzi (read-out: EC50) and 110 µM in the series with Trypanosoma cruzi (read-out: pEC50 (converted)).
For the molecule `CC(C)COc1ccc(CN(Cc2ccncc2)S(=O)(=O)c2cccc(F)c2)cc1`, the CC50 at 96 h in series [1] (read-out: CC50) is over 200 µM; in series [1] (read-out: pCC50 (converted)), 200 µM. The EC50 with Trypanosoma cruzi (read-out: EC50) and in the series with Trypanosoma cruzi (read-out: pEC50 (converted)) was over 200 µM throughout.
With `c1cncc(-c2nc(-c3cccs3)no2)c1`, in series [1] (read-out: CC50), the CC50 at 96 h came to 66.3 µM. In series [2], the selectivity ratio was under 0.3. Besides, the EC50 in the series on Trypanosoma cruzi (read-out: EC50) and in the series on Trypanosoma cruzi (read-out: pEC50 (converted)) was over 200 µM each time.
For the molecule `Cn1c(SCC(=O)N2CCN(c3ccccc3F)CC2)nnc1-c1cccnc1`, in series [1] (read-out: CC50), the CC50 at 96 h was 198 µM. Moreover, in series [2], the selectivity ratio was under 1. Further, the EC50 with Trypanosoma cruzi (read-out: EC50) and in the series with Trypanosoma cruzi (read-out: pEC50 (converted)) was over 200 µM each time.
For `CC(C)COc1ccc(CN(Cc2ccncc2)S(=O)(=O)c2ccc(F)cc2F)cc1`, the figures for the CC50 at 96 h in series [1] (read-out: CC50) and in series [1] (read-out: pCC50 (converted)) were over 200 µM and 200 µM, respectively. For the same molecule, the selectivity ratio in series [2] was over 274. Moreover, the EC50 in the series on Trypanosoma cruzi (read-out: EC50) is 0.7 µM; with Trypanosoma cruzi (read-out: pEC50 (converted)), 0.724 µM.
Regarding `O=C(Cn1ccnc1[N+](=O)[O-])NCc1ccccc1` [BENZNIDAZOLE], in series [1] (read-out: CC50), the CC50 at 96 h was over 200 µM. Moreover, the selectivity ratio in series [2] was over 128. Further, in the series on Trypanosoma cruzi (read-out: EC50), the EC50 came to 3.1 µM.

The record behind these values is ChEMBL document CHEMBL4411286, “Discovery of new potent hits against intracellular Trypanosoma cruzi by QSAR-based virtual screening” (Eur J Med Chem, 2019).
